Reference: ChEMBL document CHEMBL6134848, “Deuteration Strategy-Inspired Design of Novel Diarylpyrimidine Derivatives as Potent Non-Nucleoside Reverse Transcriptase Inhibitors Featuring Improved Efficacy, Selectivity, and Druggability” (J Med Chem, 2025)

Columns and labels:
[1] = Protein binding in human plasma assessed as drug recovery rate at 1 uM incubated for 6 hrs; format: ADME, cell-free; conditions: read-out: Drug recovery
[2] = Solubility of compound at pH 7; format: physicochemical; conditions: buffer
[3] = Cytotoxicity against human MT4 cells assessed as reduction in cell viability by MTT assay; format: toxicity, cell-based
[4] = test system: Human immunodeficiency virus 1; assay: Antiviral activity against drug-resistant HIV-1 harboring RT E138K mutant infected in human MT4 cells assessed as protection against virus-induced cytopathicity measured after 5 days post-infection by MTT assay; format: functional, organism-based; conditions: Human immunodeficiency virus 1, MT4, 120 h
[5] = test system: Human immunodeficiency virus 1; assay: Antiviral activity against drug-resistant HIV-1 harboring RT RES056 mutant infected in human MT4 cells assessed as protection against virus-induced cytopathicity measured after 5 days post-infection by MTT assay; format: functional, organism-based; conditions: Human immunodeficiency virus 1, MT4, 120 h
[6] = test system: Human immunodeficiency virus 1; assay: Antiviral activity against drug-resistant HIV-1 harboring RT L100I mutant infected in human MT4 cells assessed as protection against virus-induced cytopathicity measured after 5 days post-infection by MTT assay; format: functional, organism-based; conditions: Human immunodeficiency virus 1, MT4, 120 h
[7] = Drug metabolism in dog liver microsomes assessed as metabolic fraction at 1 uM measured up to 45 mins by LC/MS/MS analysis; format: ADME, Canis lupus familiaris, Microsome; conditions: liver microsomes, read-out: Fm
[8] = test system: Human immunodeficiency virus 1; assay: Antiviral activity against drug-resistant HIV-1 harboring RT K103N mutant infected in human MT4 cells assessed as protection against virus-induced cytopathicity measured after 5 days post-infection by MTT assay; format: functional, organism-based; conditions: Human immunodeficiency virus 1, MT4, 120 h
[9] = Metabolic stability in rat liver microsomes assessed as half life at 1 uM measured up to 45 mins by LC/MS/MS analysis; format: ADME, Microsome; conditions: 0.75 h
[10] = test system: Human immunodeficiency virus 1; assay: Antiviral activity against drug-resistant HIV-1 harboring RT F227L/V106A mutant infected in human MT4 cells assessed as protection against virus-induced cytopathicity measured after 5 days post-infection by MTT assay; format: functional, organism-based; conditions: Human immunodeficiency virus 1, MT4, 120 h
[11] = Metabolic stability in dog liver microsomes assessed as half life at 1 uM measured up to 45 mins by LC/MS/MS analysis; format: ADME, Canis lupus familiaris, Microsome; conditions: liver microsomes
[12] = Metabolic stability in human liver microsomes assessed as half life at 1 uM measured up to 45 mins by LC/MS/MS analysis; format: ADME, Microsome
[13] = test system: Human immunodeficiency virus 1; assay: Antiviral activity against wild-type HIV-1 IIIB infected in human MT4 cells assessed as protection against virus-induced cytopathicity measured after 5 days post-infection by MTT assay; format: functional, organism-based; conditions: Human immunodeficiency virus 1, IIIB, MT4, 120 h
[14] = test system: Human immunodeficiency virus 1; assay: Antiviral activity against drug-resistant HIV-1 harboring RT Y188L mutant infected in human MT4 cells assessed as protection against virus-induced cytopathicity measured after 5 days post-infection by MTT assay; format: functional, organism-based; conditions: Human immunodeficiency virus 1, MT4, 120 h
[15] = test system: Human immunodeficiency virus 1; assay: Antiviral activity against drug-resistant HIV-1 harboring RT Y181C mutant infected in human MT4 cells assessed as protection against virus-induced cytopathicity measured after 5 days post-infection by MTT assay; format: functional, organism-based; conditions: Human immunodeficiency virus 1, MT4, 120 h
[16] = Drug metabolism in human liver microsomes assessed as metabolic fraction at 1 uM measured up to 45 mins by LC/MS/MS analysis; format: ADME, Microsome; conditions: liver microsomes, read-out: Fm
[17] = Drug metabolism in rat liver microsomes assessed as metabolic fraction at 1 uM measured up to 45 mins by LC/MS/MS analysis; format: ADME, Microsome; conditions: 0.75 h
[18] = molecular target: Human immunodeficiency virus type 1 reverse transcriptase (Human immunodeficiency virus 1, UniProt Q72547); assay: Inhibition of recombinant wild type HIV-1 reverse transcriptase incubated for 40 mins in presence of poly(rA) template/oligo(dT)16 primer by Pico-Green dye based analysis

SMILES: CC(=O)CC(c1ccccc1)c1c(O)c2ccccc2oc1=O (stereo not drawn) [WARFARIN]
- recovery at 6 h, 1 µM [1]: 96.9%

SMILES: Cc1cc(C#N)cc(C)c1Oc1nc(Nc2ccc(C#N)cc2)nc(N)c1Br [ETRAVIRINE]
- solubility [2]: < 1 µg/mL
- CC50 [3]: > 4.6 µM
- EC50 [4]: 10.3 nM
- EC50 [5]: 36.5 nM
- EC50 [6]: 4.22 nM

SMILES: Cc1cc(/C=C/C#N)cc(C)c1Nc1ccnc(Nc2ccc(C#N)cc2)n1 [RILPIVIRINE]
- metabolised at 0.75 h, 1 µM [7]: 44.8%
- EC50 [8]: 0.89 nM
- t1/2 [9]: 7.3 min
- EC50 [10]: 50.8 nM
- half-life at 1 µM [11]: 79.3 min
- CC50 [3]: 6.8 µM
- half-life at 1 µM ([12]; liver microsomes): 16 min
- t1/2 ([12]; microsomes, 0.75 h, 1 µM): 16 min
- EC50 [13]: 1.27 nM
- EC50 [14]: 54 nM
- EC50 [15]: 2.66 nM
- EC50 [4]: 3.14 nM
- metabolised at 0.75 h, 1 µM [16]: 13%
- EC50 [5]: 12.4 nM
- Fm [17]: 13.3%
- EC50 [6]: 2.05 nM
- IC50 [18]: 20 nM
